± gives the expanded uncertainty stated by the source.
Experiment: activity coefficient (dimensionless); of the first substance listed, at infinite dilution; xn = mol fraction of the nth substance listed
Settings: Liquid, Chromatography, x1 = 0

Work on `Cc1ccccc1` [toluene] + CCCC[n+]1ccn(C)c1.O=S(=O)([N-]S(=O)(=O)C(F)(F)F)C(F)(F)F yielded an activity coefficient (323 K) of 1.2 ± 0.1.
Molecule `Cc1ccccc1` [toluene] + CCCCn1cc[n+](C)c1.F[B-](F)(F)F has an activity coefficient (298 K) of 2.5 ± 0.2 and an activity coefficient (323 K) of 2.4 ± 0.2.
In the case of `Cc1ccccc1` [toluene] + C[n+]1ccn(CCCC#N)c1.N#CN=C=[N-], the activity coefficient (303 K) is reported as 4.3 ± 0.3 and the activity coefficient (323 K) is reported as 4 ± 0.3.
`Cc1ccccc1` [toluene] + C[n+]1ccn(CCCC#N)c1.O=S(=O)([N-]S(=O)(=O)C(F)(F)F)C(F)(F)F showed an activity coefficient (303 K) of 3.3 ± 0.2 and an activity coefficient (323 K) of 3.1 ± 0.2.
`O` [water] + CCCC[n+]1ccn(C)c1.O=S(=O)([N-]S(=O)(=O)C(F)(F)F)C(F)(F)F showed an activity coefficient (323 K) of 2.6 ± 0.2.
Molecule `O` [water] + C[n+]1ccn(CCCC#N)c1.O=S(=O)([N-]S(=O)(=O)C(F)(F)F)C(F)(F)F has an activity coefficient (323 K) of 1.8 ± 0.1.

From the NIST ThermoML archive (doi:10.1021/je700297c)
